Measurements from patent US8334403B1, “C-lysine conjugates as pH-controlled, light-activated reagents for double stranded DNA cleavage and associated methods” (Florida State University Research Foundation, Inc., priority 2005, dated 2012).

Key:
[1] = UV-absorption titration determination of pKa; format: physicochemical; conditions: absorption
Procedure: General information. ^1H, ^13C and ^19F NMR were collected on a Varian Gemini 300 MHz NMR spectrometer and a Bruker 300 MHz NMR spectrometer. Mass spectrometry data was collected on a Jeol JMS-600H. UV spectra were recorded on a Shimadzu UV-2100. Fluorescence spectra were obtained with SPEX FluoMax spectrofluorimeter using right-angle geometry. pH was adjusted with AB 15 plus pH meter (Accument) after standardization at 25° C. All buffers were prepared and pH-adjusted at room temperature (25° C.). Plasmid DNA Photocleavage. pBR322 plasmid DNA (4,361 b/p; from BioLabs Inc., 1 μg/μL solution in 10 mM Tris-HCl (pH 8.0), and 1 mM EDTA buffer) was diluted to a concentration of 0.01 μg/μL. The solution containing cleavage agent, DNA (30 μM/bp) in 20 mM sodium phosphate buffer was incubated for 1 hour at 30° C. Samples were placed on ice at a distance of 20 cm from 200 W Hg—Xe lamp (Spectra-Physics, Laser & Photonics Oriel Instruments with long pass filter with 324 nm cut-off wavelength). Electrophoretic Analysis. The gel electrophoresis was carried out in 1×TBE buffer at 80 V using Miligel FisherBiotech Horizontal Electrophoresis System. All gels were run on 1% agarose slab gels. Before loading, the DNA samples were mixed with 0.33 volume of tracking dye containing bromophenol blue (0.25%) and glycerol (30%) in water. After staining in ethidium bromide solution (2 μg/ml) for 1 hour, the gel was washed with water and pictures were taken with Polaroid 3000ISO type 667 film. The relative quantities of the supercoiled, nicked, and linear DNA were calculated by integrating the “area” of each spot by the image analyzer software Total/Lab (Nonlinear Dynamics Ltd., UK). The amount of supercoiled DNA was multiplied by factor of 1.4 to account for reduced ethidium bromide intercalation into supercoiled DNA. pH titration by ^1H-NMR. pH* of compound 8 (3 mM) solution in D2O containing 0.05 wt % 3-(trimethylsilyl)propionic-2,2,3,3-d4 acid, sodium salt (TSP-d4) was adjusted with 10 wt % DCI and NaOD in D2O at 25° C. under argon purged condition. Spectrometric determinations of pKa. pH of 10 μM of compound solution in H2O was adjusted with 10, 100 mM HCl (aq) and NaOH (aq) solution under argon purged condition. Excitation wavelength was 330 nm and polymethacrylate fluorimeter cuvettes were used. Absorbance and fluorescence titration with DNA. The concentrations of calf thymus DNA stock solution was determined spectophotometrically using the following molar absorptovity values: 1.32×10^4 M^−1 cm^−1 (per base pair) at 260 nm. All experiments were done in 20 mM sodium phosphate buffer at 25° C. and polymethacrylate fluorimeter cuvettes were used. The same amount of DNA was added to both sample and reference cuvettes during UV/Vis titration. Determination of excited state lifetimes. The concentration of compound solution was 10 μM in 20 mM sodium phosphate buffer. The photoluminescence lifetime measurements were conducted by exciting the samples with the output of a Nd:VO—4 (Spectra-Physics Vanguard, 2 W, 532 nm, 76 MHz, 10 ps) pumped R6G dye laser (Coherent 702-1). The output of the dye laser (600 nm, Rhodamine 6G) was cavity dumped at 1.9 MHz and frequency doubled using a BBO crystal to excite the fluorophore (the excitation wavelength used was 290 nm). Samples were excited with <1 mW power and the emission was collected at right angles onto a Chromex S3 500 is 0.5 m imaging monochromator with a 50 g/mm grating and 0.5 nm resolution. […]

UMRC3 cells = test: RCC cell proliferation assay, UMRC3; format: cell-based; conditions: Homo sapiens, UMRC3, UV 350 nm 10 minutes, 72 hours
Procedure: FIG. 23 provides the results of cell proliferation assays using three different RCC cell lines: (a) UMRC3, (b) UMRC6 and (c) 786-O, and compounds I-5; RCC cells were resuspended in media and treated with UV radiation (350 nm) for 10 minutes with and without indicated compounds; control cells were exposed to the indicated compound 1-5 at final concentration of 10 μM; cell numbers determined after 72 hours as described in the SI Section;
The ability of compounds 1-5 to inhibit cell proliferation in three human clear cell renal cell carcinoma (RCC) cell lines was tested in the dark and under photoactivation (FIG. 23). No difference was detected in the control experiments between cells not exposed to UV versus those that were exposed to UV at 350 nm for 10 minutes in any of the three RCC cell lines tested (FIG. 23 A, B & C; first two columns).

CT DNA = test: Ethidium bromide displacement assay; format: binding, calf; conditions: 10 μM ethidium bromide, 10 μM CT DNA
Procedure: General information. ^1H, ^13C and ^19F NMR were collected on a Varian Gemini 300 MHz NMR spectrometer and a Bruker 300 MHz NMR spectrometer. Mass spectrometry data was collected on a Jeol JMS-600H. UV spectra were recorded on a Shimadzu UV-2100. Fluorescence spectra were obtained with SPEX FluoMax spectrofluorimeter using right-angle geometry. pH was adjusted with AB 15 plus pH meter (Accument) after standardization at 25° C. All buffers were prepared and pH-adjusted at room temperature (25° C.). Plasmid DNA Photocleavage. pBR322 plasmid DNA (4,361 b/p; from BioLabs Inc., 1 μg/μL solution in 10 mM Tris-HCl (pH 8.0), and 1 mM EDTA buffer) was diluted to a concentration of 0.01 μg/μL. The solution containing cleavage agent, DNA (30 μM/bp) in 20 mM sodium phosphate buffer was incubated for 1 hour at 30° C. […] The relative quantities of the supercoiled, nicked, and linear DNA were calculated by integrating the “area” of each spot by the image analyzer software Total/Lab (Nonlinear Dynamics Ltd., UK). […] Absorbance and fluorescence titration with DNA. The concentrations of calf thymus DNA stock solution was determined spectophotometrically using the following molar absorptovity values: 1.32×10^4 M^−1 cm^−1 (per base pair) at 260 nm. […]

[2] = system: LNCap human prostate adenocarcinoma cells; test: LNCap cell proliferation assay; format: cell-based
pBR322 plasmid DNA = test: Plasmid relaxation assay: DNA photocleavage of supercoiled plasmid under UV irradiation; format: biochemical
Procedure: General information. ^1H, ^13C and ^19F NMR were collected on a Varian Gemini 300 MHz NMR spectrometer and a Bruker 300 MHz NMR spectrometer. Mass spectrometry data was collected on a Jeol JMS-600H. UV spectra were recorded on a Shimadzu UV-2100. Fluorescence spectra were obtained with SPEX FluoMax spectrofluorimeter using right-angle geometry. pH was adjusted with AB 15 plus pH meter (Accument) after standardization at 25° C. All buffers were prepared and pH-adjusted at room temperature (25° C.). Plasmid DNA Photocleavage. pBR322 plasmid DNA (4,361 b/p; from BioLabs Inc., 1 μg/μL solution in 10 mM Tris-HCl (pH 8.0), and 1 mM EDTA buffer) was diluted to a concentration of 0.01 μg/μL. The solution containing cleavage agent, DNA (30 μM/bp) in 20 mM sodium phosphate buffer was incubated for 1 hour at 30° C. Samples were placed on ice at a distance of 20 cm from 200 W Hg—Xe lamp (Spectra-Physics, Laser & Photonics Oriel Instruments with long pass filter with 324 nm cut-off wavelength). Electrophoretic Analysis. The gel electrophoresis was carried out in 1×TBE buffer at 80 V using Miligel FisherBiotech Horizontal Electrophoresis System. All gels were run on 1% agarose slab gels. Before loading, the DNA samples were mixed with 0.33 volume of tracking dye containing bromophenol blue (0.25%) and glycerol (30%) in water. After staining in ethidium bromide solution (2 μg/ml) for 1 hour, the gel was washed with water and pictures were taken with Polaroid 3000ISO type 667 film. The relative quantities of the supercoiled, nicked, and linear DNA were calculated by integrating the “area” of each spot by the image analyzer software Total/Lab (Nonlinear Dynamics Ltd., UK). The amount of supercoiled DNA was multiplied by factor of 1.4 to account for reduced ethidium bromide intercalation into supercoiled DNA. pH titration by ^1H-NMR. pH* of compound 8 (3 mM) solution in D2O containing 0.05 wt % 3-(trimethylsilyl)propionic-2,2,3,3-d4 acid, sodium salt (TSP-d4) was adjusted with 10 wt % DCI and NaOD in D2O at 25° C. under argon purged condition. Spectrometric determinations of pKa. pH of 10 μM of compound solution in H2O was adjusted with 10, 100 mM HCl (aq) and NaOH (aq) solution under argon purged condition. Excitation wavelength was 330 nm and polymethacrylate fluorimeter cuvettes were used. Absorbance and fluorescence titration with DNA. The concentrations of calf thymus DNA stock solution was determined spectophotometrically using the following molar absorptovity values: 1.32×10^4 M^−1 cm^−1 (per base pair) at 260 nm. All experiments were done in 20 mM sodium phosphate buffer at 25° C. and polymethacrylate fluorimeter cuvettes were used. The same amount of DNA was added to both sample and reference cuvettes during UV/Vis titration. Determination of excited state lifetimes. The concentration of compound solution was 10 μM in 20 mM sodium phosphate buffer. The photoluminescence lifetime measurements were conducted by exciting the samples with the output of a Nd:VO—4 (Spectra-Physics Vanguard, 2 W, 532 nm, 76 MHz, 10 ps) pumped R6G dye laser (Coherent 702-1). The output of the dye laser (600 nm, Rhodamine 6G) was cavity dumped at 1.9 MHz and frequency doubled using a BBO crystal to excite the fluorophore (the excitation wavelength used was 290 nm). Samples were excited with <1 mW power and the emission was collected at right angles onto a Chromex S3 500 is 0.5 m imaging monochromator with a 50 g/mm grating and 0.5 nm resolution. Output of the monochromator is focused into a Hamamatsu C5680 streak camera operating at a 20 ns window for the fluorophore. Intensity analysis was carried out by integrating the spectral profile in time on the streak camera. Lifetime analysis over 6-7 lifetimes of the fluorophore was conducted by binning the photoluminescence intensity collected on the streak camera over a 20 nm spectral window at the centroid value of the emission of the fluorophore. Ethidium bromide displacement. […]

Cl.Cl.NCCCC[C@H](N)C(=O)Nc1ccc(C#Cc2c(F)c(F)nc(F)c2F)cc1 [Compound 4, (S)-2,6-Diamino-hexanoic acid [4-(2,3,5,6-tetrafluoro-pyridin-4-ylethynyl)-phenyl]-amide dihydrochloride]
pKa1 ([1]; α-amino group (4, 6), ε-amino group (7)): 6.9 | pKa2 ([1]; ε-amino group): -/9.5 | mortality at 10 µM (UMRC3 cells): 94% | displacement of intercalated ethidium bromide from its complex with DNA (CT DNA): does not lead to the displacement | LNCap cells destroyed ([2]; 10 nM, UV 10 minutes, counted after 48 h): more than 90% | toxicity without light ([2]; no UV): almost no toxicity | ds cleavage (pBR322 plasmid DNA; higher concentrations of 4): ≤ 50% | decrease of total DNA cleavage activity on increasing phosphate buffer from 10 mM to 50 mM (pBR322 plasmid DNA; pH 5.5, 10 μM): 48% | irradiation time until plasmid DNA is completely consumed (pBR322 plasmid DNA; pH 6, 10 μM): ≤ 5 min | protection of DNA from damage by hydroxyl radical/singlet oxygen scavengers (pBR322 plasmid DNA; pH 6, 10 mM scavenger, 5 min irradiation): neither of the additives is able to protect DNA | intact DNA (Form I) remained (pBR322 plasmid DNA; pH 6, 3 minutes of irradiation, 15 μM, 30 μM/bp DNA): 16% | decrease of total DNA cleavage activity on increasing phosphate buffer from 10 mM to 50 mM (pBR322 plasmid DNA; pH 7, 10 μM): 40% | unreacted DNA (Form I) (pBR322 plasmid DNA; pH 7, 3 minutes of irradiation, 15 μM, 30 μM/bp DNA): 60%
